Measured values published in US9259453B2, “Use of salmonella flagellin derivative in preparation of drug for preventing and treating inflammatory bowel diseases” (priority 2011, dated 2016).
“Also recorded” adds a separate entry of the source.

Tests used:
[1] = test system: IBD patients; details: cited from earlier work
[2] = test system: TLR family; experiment: Expression of TLR family in colon by RT-PCR after treatment in TNBS modeling; format: in vivo, BALB/c mice; details: 3.2 mg/kg 4 h after TNBS
Text: The colon samples were removed at the indicated times, washed with phosphate-buffered saline (pH 7.2), and cut in small pieces. Total RNA of colon samples what were control group, modeling group and treatment group were extracted by Total RNA kits II (Omega, Japan) according to the manufacturers' instructions, and then reverse-transcribed by the Reverse Transcription System (Sigma, USA). Subsequently, the TLRs and β-actin were amplified by PCR using the following primers (Table 1). The reaction system of PCR was 500, Ex Taq 0.250, 10× buffer 5 μl, dNTP 5 μl, template 2 μl, the upstream and downstream primers 1 μl, ddH2O 35.75 μl. The reaction condition of PCR is 95° C. 5 min, 95° C. 45 sec, 62° C. 45 sec, 72° C. 1 min, total 25 cycles, and then 72° C. 5 min. PCR products were identified on 2% agarose-gel electrophoresis followed by image analysis software.

[3] = test system: mice with ulcerative colitis in TNBS modeling; experiment: Prevention of TNBS-induced IBD in mice, Example 3; format: in vivo, BALB/c mice
Description: Experimental Animals: the same as in Example 2.
Reagents: the same as in Example 2.
Model preparation: the same as in Example 2.
Experimental animal groups: model group, prevention group and control group (n=8). The prevention group: BALB/c mice were treated therapeutically with CBLB502 (3.2 mg/kg) before TNBS administration, and then the mice were given TNBS and normal feeding two days. The model group was normal feeding two days after TNBS administration. The control mice received 38% ethanol alone by using the same method described above, and normal feeding.
Test contents and test methods: the same as in Example 2.

[4] = statement, no test described; cited from earlier work
[5] = test system: mice with ulcerative colitis in TNBS modeling; experiment: Treatment of TNBS-induced ulcerative colitis (IBD) in mice, Example 2; format: in vivo, BALB/c mice
Description: Experimental Animal: Male BALB/c mice (7-8 weeks old, 25±5 g) were obtained from Experimental Animal Center of Academy of Military Medical Sciences (Beijing, China). Mice were provided sterile food and water, and 12 h light/12 h dark cycle. All animal experiments were approved by the Institutional Animal Care and Use Committee at Academy of Military Medical Sciences.
Reagents: 2,4,6-trinitrobenzene sulfonic acid (TNBS, were purchased from Sigma Chemical Co.), CZLC331 (prepared in Example 1), RT PCR kit (ID isFSK100, purchased from Toyobo Biotechnology Co., Ltd.).
Model preparation: Mice (hunger for 36 h) were anesthetized with isoflurane using anesthesia machine. To induce IBD, 150 mg/kg of TNBS (Sigma-Aldrich) in 38% ethanol (to break the intestinal epithelial barrier) was administered by the mouse gavage needle equipped with a 1 ml syringe, what the diameter of silicone tube is 2. 0 mm and the length is about 10 cm, the gavage needle was advanced into the rectum until the tip was 4 cm proximal to the anal verge. The total injection volume was 100 μl.
Experimental animal groups: model group, treatment group and control group (n=8). The control mice received 38% ethanol alone by using the same method described above, and normal feeding two days. The treatment group: BALB/c mice were treated therapeutically with CBLB502 (3.2 mg/kg) at 0.5 h after TNBS administration. At the same time, BALB/c mice were treated therapeutically with CBLB502 (0.2-6.4 mg/kg) from 0.5 h to 8 h after TNBS administration, and normal feeding two days. The mice of model group were normal feeding two days after TNBS administration.
Mice were monitored for the appearance of diarrhea, changes of body weight, and overall mortality. At the end of the experiment after TNBS administration two days, surviving mice were killed, blood samples were collected by cardiac puncture, and a 7-cm segment of the colon was excised for macroscopic (FIG. 1, FIG. 4 left, and FIG. 5) and microscopic damage evaluation (FIG. 2, FIG. 4 right, and FIG. 6). And the end of the colon after washing using physiological saline was kept at −80° C. frozen for follow-up testing.
2. Histological examination: The colonic samples were fixed in 4% buffered formalin overnight and then transferred to 70% ethanol, embedded in paraffin for sectioning, and then stained with hematoxylin and eosin (H&E) to examine the histological differences.

[6] = given 0.5 h before TNBS modeling, two days, versus model group

Compound | side effects ([1]; after taking the drug) | effective rate ([1]; clinical drug) | markedly effective rate ([1]; clinical drug) | onset (time until symptoms improved) ([1]; clinical) | expression of TLR6 ([2]; raised in model group) | expression of TLR7 ([2]; raised in model group) | expression of TLR8 ([2]; raised in model group) | expression of TLR family ([2]; versus model group) | clinical signs: blood in the stool, eat less, move less [3, 6] | colon: congestion, edema, hemorrhage [3, 6] | prevention of IBD (overall) ([3]; given before TNBS modeling) | side effects [4] | toxicity [4] | clinical signs: blood in the stool, feeding/water intake, activity ([5]; 0.2-6.4 mg/kg intraperitoneal, 0.5 h to 8 h after TNBS, two days, versus model group) | colon appearance: congestion, edema, hemorrhage, ulcers ([5]; 0.2-6.4 mg/kg, 0.5 h to 8 h after TNBS, two days, versus model group) | colonic mucosa HE staining: cell structure, goblet cells, lymphocyte and neutrophil infiltration ([5]; 0.2-6.4 mg/kg, 0.5 h to 8 h after TNBS, versus model group) | cure rate ([5]; TNBS mice, intraperitoneal CZLC331) | onset (time after administration to effect) ([5]; examples 2 and 3, all animals) | effective rate ([5]; improvement of feeding, activity and blood in stool, all animals of treatment group and prevention group (examples 2 and 3)) | effective rate of recovered colon mucosa ([5]; treatment group)
O=C(O)c1cc(/N=N/c2ccc(S(=O)(=O)Nc3ccccn3)cc2)ccc1O [sulfasalazine] | nausea, rash, neutropenia | about 90% | 50% | about two |  |  |  |  |  |  |  |  |  |  |  |  |  |  |  | 
CZLC331: Salmonella flagellin derivative, SEQ ID NO: 3: Tat protein transduction peptide plus flagellin residues 1-176 and 402-505 joined by flexible linker; 331 amino acids |  |  |  |  | no significant differences | no significant differences | would change | significant differences with the model group | reduced | began reduce | protective effects | no significant side effects | non-toxic | feeding/water intake of mice return to normal, the activities increased significantly and reduce blood in the stool; also recorded: reduced | significantly reduced; also recorded: began reduce | significantly reduced; also recorded: structures of cells were arranged in neat, a small number of goblet cells and lymphocyte and neutrophil infiltration were disappeared; also recorded: well results for treating | 70% | 24 h | 100% | 75%
